Assay results as given in ChEMBL document CHEMBL1212934, “Isolation of pandamarilactonine-H from the roots of Pandanus amaryllifolius and synthesis of epi-pandamarilactonine-H” (J Nat Prod, 2010).

Columns and labels:
Type in all cases: functional, cell-based
A549 = assay: Cytotoxicity against human A549 cells
HT-29 = assay: Cytotoxicity against human HT-29 cells
HCT-116 = assay: Cytotoxicity against human HCT116 cells

Measured: IC50

COC(=O)C[C@@H]1CCCN1CCC/C=C1\C=C(C)C(=O)O1
> 5 µg/mL: all assays above

COC(=O)C[C@H]1CCCN1CCC/C=C1\C=C(C)C(=O)O1
> 5 µg/mL: all assays above

COC(=O)C[C@H]1CCCN1CCC/C=C1/C=C(C)C(=O)O1
> 5 µg/mL: all assays above

CC1=C[C@H]([C@H]2CCCN2CCCC[C@@H]2C[C@@H](C)C(=O)O2)OC1=O
> 5 µg/mL: all assays above
